Test results published in ChEMBL document CHEMBL2010711, “Synthesis and comparative evaluation of 4-oxa- and 4-aza-podophyllotoxins as antiproliferative microtubule destabilizing agents” (Bioorg Med Chem Lett, 2012).
Calls of active or inactive are those of the source.

Tests used:
MDA-MB-468 = assay: Cytotoxicity against human MDA-MB-468 cells after 48 hrs by trypan blue dye exclusion assay; assay type: functional; details: MDA-MB-468, 48 h
LOX IMVI = assay: Cytotoxicity against human LOXIMVI cells after 48 hrs by trypan blue dye exclusion assay; assay type: functional
PC-3 = assay: Cytotoxicity against human PC3 cells after 48 hrs by trypan blue dye exclusion assay; assay type: functional; details: PC-3, 48 h
OVCAR-3 = assay: Cytotoxicity against human OVCAR3 cells after 48 hrs by trypan blue dye exclusion assay; assay type: functional; details: OVCAR-3, 48 h
Malme-3M = assay: Cytotoxicity against human MALME-3M cells after 48 hrs by trypan blue dye exclusion assay; assay type: functional
NCI-H23 = assay: Cytotoxicity against human NCI-H23 cells after 48 hrs by trypan blue dye exclusion assay; assay type: functional; details: NCI-H23, 48 h
[1] = Cytotoxicity against human Hs 578T cells after 48 hrs by trypan blue dye exclusion assay; assay type: functional
Paracentrotus lividus [2] = assay: Microtubule destabilizing activity in Paracentrotus lividus embryo assessed as embryo spinning at 2 fold less effective threshold concentration after 15 mins to 20 hrs; assay type: functional, organism-based
A549 = assay: Cytotoxicity against human A549 cells after 48 hrs by trypan blue dye exclusion assay; assay type: functional; details: A549, 48 h
A498 = assay: Cytotoxicity against human A498 cells after 48 hrs by trypan blue dye exclusion assay; assay type: functional; details: A498, 48 h
OVCAR-8 = assay: Cytotoxicity against human OVCAR8 cells after 48 hrs by trypan blue dye exclusion assay; assay type: functional; details: OVCAR-8, 48 h
MDA-MB-435 = assay: Cytotoxicity against human MDA-MB-435 cells after 48 hrs by trypan blue dye exclusion assay; assay type: functional; details: MDA-MB-435, 48 h
SW-620 = assay: Cytotoxicity against human SW620 cells after 48 hrs by trypan blue dye exclusion assay; assay type: functional; details: SW-620, 48 h
M14 = assay: Cytotoxicity against human M14 cells after 48 hrs by trypan blue dye exclusion assay; assay type: functional; details: M14, 48 h
MCF7 = assay: Cytotoxicity against human MCF7 cells after 48 hrs by trypan blue dye exclusion assay; assay type: functional; details: MCF7, 48 h
UACC-62 = assay: Cytotoxicity against human UACC62 cells after 48 hrs by trypan blue dye exclusion assay; assay type: functional; details: UACC-62, 48 h
SF-295 = assay: Cytotoxicity against human SF295 cells after 48 hrs by trypan blue dye exclusion assay; assay type: functional; details: SF-295, 48 h
CCRF-CEM = assay: Cytotoxicity against human CCRF-CEM cells after 48 hrs by trypan blue dye exclusion assay; assay type: functional
MDA-MB-231 = assay: Cytotoxicity against human MDA-MB-231 cells after 48 hrs by trypan blue dye exclusion assay; assay type: functional; details: MDA-MB-231, 48 h
RPMI-8226 = assay: Cytotoxicity against human RPMI8226 cells after 48 hrs by trypan blue dye exclusion assay; assay type: functional; details: RPMI-8226, 48 h
Paracentrotus lividus [3] = assay: Antimitotic activity against Paracentrotus lividus embryo assessed as cleavage alteration at 2 fold less effective threshold concentration after 2.5 to 6 hrs; assay type: functional, organism-based
NCI-H226 = assay: Cytotoxicity against human NCI-H226 cells after 48 hrs by trypan blue dye exclusion assay; assay type: functional; details: NCI-H226, 48 h
SNB-75 = assay: Cytotoxicity against human SNB75 cells after 48 hrs by trypan blue dye exclusion assay; assay type: functional; details: SNB-75, 48 h
HL-60(TB) = assay: Cytotoxicity against human HL-60(TB) cells after 48 hrs by trypan blue dye exclusion assay; assay type: functional; details: HL-60, 48 h
Paracentrotus lividus [4] = assay: Microtubule destabilizing activity in Paracentrotus lividus embryo assessed as concentration required to cause 100% embryo spinning after 15 mins to 20 hrs; assay type: functional
TK-10 = assay: Cytotoxicity against human TK10 cells after 48 hrs by trypan blue dye exclusion assay; assay type: functional; details: TK-10, 48 h
BT-549 = assay: Cytotoxicity against human BT549 cells after 48 hrs by trypan blue dye exclusion assay; assay type: functional; details: BT-549, 48 h
Paracentrotus lividus [5] = assay: Antimitotic activity against Paracentrotus lividus embryo assessed as cleavage arrest at 2 fold less effective threshold concentration after 2.5 to 6 hrs; assay type: functional, organism-based
OVCAR-4 = assay: Cytotoxicity against human OVCAR4 cells after 48 hrs by trypan blue dye exclusion assay; assay type: functional; details: OVCAR-4, 48 h
NCI-H522 = assay: Cytotoxicity against human NCI-H522 cells after 48 hrs by trypan blue dye exclusion assay; assay type: functional; details: NCI-H522, 48 h
COLO 205 = assay: Cytotoxicity against human COLO205 cells after 48 hrs by trypan blue dye exclusion assay; assay type: functional; details: COLO 205, 48 h
EKVX = assay: Cytotoxicity against human EKVX cells after 48 hrs by trypan blue dye exclusion assay; assay type: functional
SK-MEL-2 = assay: Cytotoxicity against human SK-MEL-2 cells after 48 hrs by trypan blue dye exclusion assay; assay type: functional; details: SK-MEL-2, 48 h
IGROV-1 = assay: Cytotoxicity against human IGROV1 cells after 48 hrs by trypan blue dye exclusion assay; assay type: functional; details: IGROV-1, 48 h
HCT-116 = assay: Cytotoxicity against human HCT116 cells after 48 hrs by trypan blue dye exclusion assay; assay type: functional; details: HCT-116, 48 h
Paracentrotus lividus [6] = assay: Antimitotic activity against Paracentrotus lividus embryo assessed as concentration required to cause 100% cleavage alteration after 2.5 to 6 hrs; assay type: functional
SK-OV-3 = assay: Cytotoxicity against human SKOV3 cells after 48 hrs by trypan blue dye exclusion assay; assay type: functional; details: SK-OV-3, 48 h
DU-145 = assay: Cytotoxicity against human DU145 cells after 48 hrs by trypan blue dye exclusion assay; assay type: functional; details: DU-145, 48 h
SF-268 = assay: Cytotoxicity against human SF268 cells after 48 hrs by trypan blue dye exclusion assay; assay type: functional; details: SF-268, 48 h
SN12C = assay: Cytotoxicity against human SN12C cells after 48 hrs by trypan blue dye exclusion assay; assay type: functional
HOP-92 = assay: Cytotoxicity against human HOP92 cells after 48 hrs by trypan blue dye exclusion assay; assay type: functional; details: HOP-92, 48 h
UO-31 = assay: Cytotoxicity against human UO31 cells after 48 hrs by trypan blue dye exclusion assay; assay type: functional; details: UO-31, 48 h
NCI-H460 = assay: Cytotoxicity against human NCI-H460 cells after 48 hrs by trypan blue dye exclusion assay; assay type: functional; details: NCI-H460, 48 h
U-251 = assay: Cytotoxicity against human U251 cells after 48 hrs by trypan blue dye exclusion assay; assay type: functional; details: U-251, 48 h
SF-539 = assay: Cytotoxicity against human SF539 cells after 48 hrs by trypan blue dye exclusion assay; assay type: functional; details: SF-539, 48 h
HCT-15 = assay: Cytotoxicity against human HCT15 cells after 48 hrs by trypan blue dye exclusion assay; assay type: functional; details: HCT-15, 48 h
ACHN = assay: Cytotoxicity against human ACHN cells after 48 hrs by trypan blue dye exclusion assay; assay type: functional
SK-MEL-28 = assay: Cytotoxicity against human SK-MEL-28 cells after 48 hrs by trypan blue dye exclusion assay; assay type: functional; details: SK-MEL-28, 48 h
SNB-19 = assay: Cytotoxicity against human SNB19 cells after 48 hrs by trypan blue dye exclusion assay; assay type: functional; details: SNB-19, 48 h
OVCAR-5 = assay: Cytotoxicity against human OVCAR5 cells after 48 hrs by trypan blue dye exclusion assay; assay type: functional; details: OVCAR-5, 48 h
NCI/ADR-RES = assay: Cytotoxicity against human NCI/ADR-RES cells after 48 hrs by trypan blue dye exclusion assay; assay type: functional
RXF 393 = assay: Cytotoxicity against human RXF393 cells after 48 hrs by trypan blue dye exclusion assay; assay type: functional; details: RXF 393, 48 h
786-0 = assay: Cytotoxicity against human 786-0 cells after 48 hrs by trypan blue dye exclusion assay; assay type: functional; details: 786-0, 48 h
Paracentrotus lividus [7] = assay: Antimitotic activity against Paracentrotus lividus embryo assessed as concentration required to cause 100% cleavage arrest after 2.5 to 6 hrs; assay type: functional
KM12 = assay: Cytotoxicity against human KM12 cells after 48 hrs by trypan blue dye exclusion assay; assay type: functional; details: KM12, 48 h
HCC 2998 = assay: Cytotoxicity against human HCC2998 cells after 48 hrs by trypan blue dye exclusion assay; assay type: functional; details: HCC 2998, 48 h
T47D = assay: Cytotoxicity against human T47D cells after 48 hrs by trypan blue dye exclusion assay; assay type: functional
HT-29 = assay: Cytotoxicity against human HT-29 cells after 48 hrs by trypan blue dye exclusion assay; assay type: functional; details: HT-29, 48 h
MOLT-4 = assay: Cytotoxicity against human MOLT4 cells after 48 hrs by trypan blue dye exclusion assay; assay type: functional; details: MOLT-4, 48 h
SR = assay: Cytotoxicity against human SR cells after 48 hrs by trypan blue dye exclusion assay; assay type: functional

COc1ccc2c(c1)OC1=C(C(=O)OC1)C2c1cc(OC)c(OC)c(OC)c1 (stereo not given) gave a GI50 (MDA-MB-468) of 232 nM, a GI50 (LOX IMVI) of 505 nM and a GI50 (PC-3) of 482 nM. It also gave a GI50 (OVCAR-3) of 332 nM, a GI50 (Malme-3M) of 468 nM and a GI50 (NCI-H23) of 441 nM. The GI50 [1] was 377 nM, the Activity (Paracentrotus lividus [2]) was “inactive” and the GI50 (A549) was 707 nM. It also gave a GI50 (A498) of 295 nM, a GI50 (OVCAR-8) of 788 nM and a GI50 (MDA-MB-435) of 120 nM. It also gave a GI50 (SW-620) of 352 nM, a GI50 (M14) of 505 nM and a GI50 (MCF7) of 330 nM. It also gave a GI50 (UACC-62) of 568 nM, a GI50 (SF-295) of 288 nM and a GI50 (CCRF-CEM) of 315 nM. For the same molecule, the GI50 (MDA-MB-231) was 1740 nM, the GI50 (RPMI-8226) was 816 nM and the Activity (Paracentrotus lividus [3]) was “inactive”. For the same molecule, the GI50 (NCI-H226) was 47500 nM, the GI50 (SNB-75) was 172 nM and the GI50 (HL-60(TB)) was 249 nM. For the same molecule, the EC (Paracentrotus lividus [4]) was 200 nM, the GI50 (TK-10) was greater than 100000 nM and the GI50 (BT-549) was 947 nM. For the same molecule, the Activity (Paracentrotus lividus [5]) was “inactive”, the GI50 (OVCAR-4) was 2650 nM and the GI50 (NCI-H522) was 378 nM. It also gave a GI50 (COLO 205) of 309 nM, a GI50 (EKVX) of 1420 nM and a GI50 (SK-MEL-2) of 439 nM. It also gave a GI50 (IGROV-1) of 1130 nM, a GI50 (HCT-116) of 496 nM and an EC (Paracentrotus lividus [6]) of 5 nM. The GI50 (SK-OV-3) was 368 nM, the GI50 (DU-145) was 648 nM and the GI50 (SF-268) was 731 nM. For the same molecule, the GI50 (SN12C) was 993 nM, the GI50 (HOP-92) was 496 nM and the GI50 (UO-31) was 936 nM. For the same molecule, the GI50 (NCI-H460) was 1270 nM, the GI50 (U-251) was 731 nM and the GI50 (SF-539) was 376 nM. It also gave a GI50 (HCT-15) of 508 nM, a GI50 (ACHN) of 1630 nM and a GI50 (SK-MEL-28) of 667 nM. For the same molecule, the GI50 (SNB-19) was 553 nM, the GI50 (OVCAR-5) was 4680 nM and the GI50 (NCI/ADR-RES) was 334 nM. It also gave a GI50 (RXF 393) of 231 nM, a GI50 (786-0) of 562 nM and an EC (Paracentrotus lividus [7]) of 50 nM. For the same molecule, the GI50 (KM12) was 464 nM, the GI50 (HCC 2998) was 1350 nM and the GI50 (T47D) was 489 nM. It also gave a GI50 (HT-29) of 323 nM, a GI50 (MOLT-4) of 515 nM and a GI50 (SR) of 242 nM.
